# Experimental data reported in patent US6608189B1, “Fluorescent protein sensors for measuring the pH of a biological sample” (University of California, priority 1998, dated 2003).
# Columns and labels:
# [1] = system: mitochondria of HeLa cells; assay: GFP T203I as pH-insensitive reference in mitochondria of HeLa cells; format: cell-based; settings: control experiments
# Protocol: To identify a GFP sensor protein suitable for use as a reference protein for measuring mitochondrial matrix pH, the GFP mutant T203I was expressed in the mitochondria of HeLa cells.
# Fluorescence of HeLa cells transfected with the GFP T203I mutant was monitored for about 400 seconds using an excitation ratio of 480 nm/400 nm. 10 μM CCCP was then added to the cells, and fluorescence was monitored for an additional 250 seconds. […] In control experiments, it was observed that addition of CCCP corresponded to a drop in pH of about 1 unit. Thus, the GFP T203I mutant is suitable for use as a reference, pH-insensitive mutant.
# [2] = system: mitochondrial matrix of chick skeletal myotubes; assay: mitochondrial matrix pH with mito-YFP H148G in chick skeletal myotubes; format: cell-based; settings: 2 uM, t about 1400 seconds
# Excerpt: Fluorescence was also examined, and pH measured, in primary cultures of chick skeletal myotubes transfected with the mito-YFP H148G mutant. […] Thereafter fluorescence continued to be observed during calibration at ph 6.9, 7.6 and 8.0.
# [3] = system: mitochondrial matrix of HeLa cells; assay: mitochondrial matrix pH with mito-YFP H148G in HeLa cells; format: cell-based; settings: 5 uM
# Protocol: YFP H148G expression was monitored by observing fluorescence over time. Mitochondrial pH was also monitored by pH titration as described in Example 3 using nigericin and monensin.
# 5 μM CCCp was added at about t≈300 seconds. […] Then a calibration was performed by perfusing the cells with extracellular medium of pH 7, 7.5, 8, and 8.35 containing the ionophores nigericin plus monensin to equilibrate mitochondrial pH and extracellular pH. Fluorescence in mitochondria increased stepwise with each change of extracellular pH.
# [4] = system: mitochondrial matrix of HeLa cells; assay: pH in the mitochondrial matrix with EYFP-mito; format: cell-based; settings: HeLa cells expressing EYFP-mito
# Protocol: To measure pH in the mitochondrial matrix using mutant GFP sensor proteins, HeLa cells and neonatal rat cardiomyocytes were transfected with the fluorescent protein pH sensor EYFP-mito. A Bio-Rad MRC-1000 confocal microscope was used for analysis of the targeted protein. […] In situ pH titration was performed with nigericin/monensin as described in Example 3.
# [5] = system: mitochondrial matrix of HeLa cells; assay: mitochondrial matrix pH with mito-YFP H148Q in HeLa cells; format: cell-based; settings: 10 uM in high KCl titration buffer
# Protocol: The YFP H148Q mutant has a pKa of about 7.4, which is intermediate between the pKa of EYFP and YFP mutant H148G. […] Fluorescence was measured over time (beginning at t≈0), including following the addition of 10 μM nigericin in high KCL titration buffer at t≈500 seconds.
# Fluorescence decreased to about 175 units at t=1000 seconds by addition of nigericin, which lowered the pH to about 6.9. Fluorescence then returned stepwise to 400 units with each change of the extracellular medium.
# [6] = system: HeLa cells; assay: pH in cytosol and nucleus of cells expressing EYFP; format: cell-based; settings: reversible on wash-out
# Protocol: HeLa cells and AT-20 cells grown on glass coverslips were transiently lipo-transfected (Lipofectin™, GIBCO) with polynucleotide constructs encoding EYFP.
# (§1) Cells were imaged between 2 and 4 days after transfection at 22° C. with a cooled charge-coupled device camera (Photometrices, Tucson, Ariz.) as described in Miyawaki et al., Nature 388:882, (1997). The interference filters (Omega Optical and Chroma Technology, Brattleboro, Vt.) used for excitation and emission were 440 ECFP; 480 535 EGFP or EYFP. The dichroic mirrors were 455 DCLP for ECFP and 505 DCLP for EGFP or EYFP. Regions of interest were selected manually, and pixel intensities were spatially averaged after background subtraction. A binning of 2 was used to improve signal/noise and minimize photodamage and photoisomerization of EYFP. High KCl buffer plus 5 μM each of the ionophores nigericin (Fluka) and monensin (Calbiochem) was used for in situ titrations in living cells. Cells were loaded with cytosolic pH indicators by incubation with 3 μM carboxy-SNARF/AM or BCECF/AM (Molecular Probes) for 45 minutes, then washed for 30 minutes, all at 22° C.
# Calibration of fluorescence intensity with pH in situ was accomplished with a mix of the alkali cation/H+ ionophores nigericin and monensin in bath solutions of defined pH and high K+. Fluorescence equilibrated within 1-4 minutes after each exchange of solution.
# [7] = system: macrophage phagosomes; settings: cited from earlier work
# [8] = system: Golgi lumen of HeLa cells; assay: pH in the Golgi lumen with GT-EYFP; format: cell-based; settings: HeLa cells expressing GT-EYFP
# Protocol: as §1
# The pH of the Golgi lumen was measured by transfecting HeLa or AT-20 cells with the constructs GT-ECFP, GT-EGFP, or GT-EYFP. Bright juxtanuclear fluorescence was observed, with little increase in diffuse staining above autofluorescnce in most cells.
# The pH gradient across the Golgi membrane is maintained by the electrogenic ATP-dependent H^+ pump (V-ATPase). The V-ATPase generates a ΔpH (acidic inside) and Δψ(positive inside), which opposes further H^+ transport. The movement of counter-ions, Cl^− in (or K^+ out), with H^+ uptake would shunt the Δψ, allowing a larger ΔpH to be generated. These mechanisms were investigated in intact single HeLa cells transfected with GT-EYFP.
# [9] = system: Golgi lumen of HeLa cells; assay: ratiometric Golgi pH with GT-EYFP and GT-ECFP; format: cell-based; settings: cotransfected HeLa cells
# Excerpt: Quantitative measurements of fluorescence with nonratiometric indicators can suffer from artifacts as a result of cell movement or focusing. To correct for these effects, the cyan-emitting mutant GT-ECFP was co-transfected into cells along with GT-EYFP. ECFP has excitation and emission peaks that can be separated from those of EYFP by appropriate filters. In addition, ECFP is less pH-sensitive than EYFP (see FIG. 2B).
# Although the ratio of EYFP to ECFP emission varied between cells, probably reflecting a different concentration of GT-EYFP and GT-ECFP in the Golgi lumen, it changed with pH as expected (FIG. 3B). Bafilomcin A1 raised the GT-EYFP/GT-ECFP emission ratio, i.e, it raised pHG.
# [10] = target: YFP (yellow fluorescent protein; GFP quadruple mutant T203Y/S65G/V68L/S72A, also carrying Q80R) (Aequorea victoria) [GFP: P42212]; assay: X-ray crystal structure of YFP, largest contact area with an adjacent molecule
molecule,measurement,setting,value
"N#CC(C#N)=NNc1cccc(Cl)c1 [CCCP, carbonylcyanide m-chlorophenylhydrazone]",drop in pH on addition,[1],about 1 unit
same,mitochondrial pH after addition,[2],6.9
same,mitochondrial pH after addition,[3],7.0
same,mitochondrial pH after acidification by the protonophore,[4],~7
CO[C@@H]1C[C@@H](C[C@H]2CC[C@H](C)[C@H]([C@@H](C)C(=O)O)O2)O[C@]2(O[C@](C)([C@H]3CC[C@@](C)([C@@H]4O[C@@H]([C@H]5O[C@@](O)(CO)[C@H](C)C[C@@H]5C)C[C@@H]4C)O3)C[C@H]2C)[C@@H]1C [nigericin],mitochondrial pH after addition,[5],about 6.9
CC(O)C(=O)O (stereo not shown) [lactate],change of EYFP fluorescence (pH) on perfusion,[6],decrease in fluorescence
CO/C1=C\C(C)=C\[C@@H](C)[C@@H](O)[C@@H](C)C/C(C)=C/C=C/[C@H](OC)[C@@H]([C@@H](C)[C@@H](O)[C@H](C)[C@@]2(O)C[C@@H](O)[C@H](C)[C@@H](C(C)C)O2)OC1=O [bafilomycin A1],rate of alkalinization reported for other acidic compartments,[7],0.09 pH/min
same,increase of pHG,[8]; 0.2 uM,about 0.6 units
same,pHG after treatment,"[8]; 0.2 uM, n=12 cells",7.16
same,initial rate of Golgi alkalinization,[8]; n=12 cells,0.52 pH units per minute
same,GT-EYFP/GT-ECFP emission ratio (pHG),[9],raised
Cl.N [NH4Cl],change of EYFP fluorescence (pH) on perfusion,[6],increase in fluorescence
"YFP (yellow fluorescent protein; GFP quadruple mutant T203Y/S65G/V68L/S72A, also carrying Q80R) (from UniProt P42212 1-238)",contact area on one monomer surface,[10],722 Å2
